Test results published in ChEMBL document CHEMBL1143447, “Identification of synthetic compounds active against VRE: the role of the lipidated aminoglucose and the structure of glycopeptide binding pocket” (2005).
Converted amounts (≈) assume the structure as drawn.

How the values were obtained:
Format in all cases: functional
[1] = system: Staphylococcus epidermidis; assay: Minimum inhibitory concentration against 147 Staphylococcus epidermidis ATCC 12228
Enterococcus faecium [2] = assay: Minimum inhibitory concentration against 568 Enterococcus faecium (isogenic of L569)
Enterococcus faecium [3] = assay: Minimum inhibitory concentration against 569 Enterococcus faecium clin. isolate Van-A
Enterococcus faecium [4] = assay: Minimum inhibitory concentration against 2215 Enterococcus faecium clin. isolate Van-A
Enterococcus faecalis [5] = assay: Minimum inhibitory concentration against 559 Enterococcus faecalis (isogenic of L 560)
Enterococcus faecalis [6] = assay: Minimum inhibitory concentration against 2981 Enterococcus faecalis clin. Isolate Van-A
Enterococcus faecalis [7] = assay: Minimum inhibitory concentration against 1139 Enterococcus faecalis teico-vanco-sensitive
Streptococcus pyogenes = assay: Minimum inhibitory concentration against 49 Streptococcus pyogenes C203
Enterococcus faecalis [8] = assay: Minimum inhibitory concentration against 559 Enterococcus faecalis Van-A
Staphylococcus aureus [9] = assay: Minimum inhibitory concentration against 819 Staphylococcus aureus Smith MSSA
Staphylococcus aureus [10] = assay: Minimum inhibitory concentration against 3797 Staphylococcus aureus Clin. isolate VISA
Staphylococcus aureus [11] = assay: Minimum inhibitory concentration against 3798 Staphylococcus aureus Clin. isolate VISA
Staphylococcus aureus [12] = assay: Minimum inhibitory concentration against 613 Staphylococcus aureus Clin. isolate Met-R
Staphylococcus aureus [13] = assay: Minimum inhibitory concentration against 1400 Staphylococcus aureus Clin. isolate Met-R

SMILES | MIC [1] [µg/mL] | MIC (Enterococcus faecium [2]) [µg/mL] | MIC (Enterococcus faecium [3]) [µg/mL] | MIC (Enterococcus faecium [4]) [µg/mL] | MIC (Enterococcus faecalis [5]) [µg/mL] | MIC (Enterococcus faecalis [6]) [µg/mL] | MIC (Enterococcus faecalis [7]) [µg/mL] | MIC (Streptococcus pyogenes) [µg/mL] | MIC (Enterococcus faecalis [8]) [µg/mL] | MIC (Staphylococcus aureus [9]) [µg/mL] | MIC (Staphylococcus aureus [10]) [µg/mL] | MIC (Staphylococcus aureus [11]) [µg/mL] | MIC (Staphylococcus aureus [12]) [µg/mL] | MIC (Staphylococcus aureus [13]) [µg/mL]
CCCCCCCCCCCC(=O)NC1C(Oc2cc3cc(c2OC)Oc2ccc(cc2[N+](=O)[O-])C[C@@H](NC(=O)[C@H](N)CC(C)C)C(=O)N[C@@H](Cc2ccccc2)C(=O)N[C@H]3[C@@H](O)C(=O)O)OC(CO)C(O)C1O.Cl (stereo partly specified) | 64 | 64 | 32 | 32 | 8 | 32 | 32 | 32 | 8 |  |  |  |  | 
CC(=O)N[C@@H]1[C@H](Oc2c3cc4cc2Oc2ccc(cc2Cl)[C@@H](O[C@@H]2O[C@@H](CO)[C@@H](O)[C@H](O)[C@@H]2NC(C)=O)[C@@H]2NC(=O)[C@H](NC(=O)[C@@H]4NC(=O)[C@H]4NC(=O)[C@@H](Cc5ccc(c(Cl)c5)O3)NC(=O)[C@H](N)c3ccc(O)c(c3)Oc3cc(O)cc4c3)c3ccc(O)c(c3)-c3c(O[C@H]4O[C@H](CO)[C@@H](O)[C@@H](O)[C@@H]4O)cc(O)cc3[C@@H](C(=O)O)NC2=O)O[C@@H](CO)[C@@H](O)[C@@H]1O | 2 (≈ 1.13 µM) | ≤ 0.125 |  |  |  |  |  | ≤ 0.125 |  | 1 (≈ 0.566 µM) | 16 (≈ 9.05 µM) | 4 (≈ 2.26 µM) | 1 (≈ 0.566 µM) | 1 (≈ 0.566 µM)
CC(C)C[C@@H](N)C(=O)N[C@@H]1Cc2ccc(c([N+](=O)[O-])c2)Oc2cc(cc(Oc3ccc([N+](=O)[O-])cc3)c2O)[C@H]([C@@H](O)C(=O)O)NC(=O)[C@H](Cc2ccccc2)NC1=O.Cl |  |  |  |  | 64 |  |  | 64 | 64 |  | 64 |  |  | 
CN[C@H](CC(C)C)C(=O)N[C@H]1C(=O)N[C@@H](CC(N)=O)C(=O)N[C@H]2C(=O)N[C@H]3C(=O)N[C@H](C(=O)N[C@H](C(=O)O)c4cc(O)cc(O)c4-c4cc3ccc4O)[C@H](O)c3ccc(c(Cl)c3)Oc3cc2cc(c3O[C@@H]2O[C@H](CO)[C@@H](O)[C@H](O)[C@H]2O[C@H]2C[C@](C)(N)[C@H](O)[C@H](C)O2)Oc2ccc(cc2Cl)[C@H]1O [VANCOMYCIN] | 1 (≈ 0.69 µM) | 2 (≈ 1.38 µM) |  |  | 1 (≈ 0.69 µM) |  | 2 (≈ 1.38 µM) | ≤ 0.125 |  | 1 (≈ 0.69 µM) | 8 (≈ 5.52 µM) | 8 (≈ 5.52 µM) | 1 (≈ 0.69 µM) | 1 (≈ 0.69 µM)
COc1c(Oc2ccc([N+](=O)[O-])cc2)cc2cc1Oc1ccc(cc1[N+](=O)[O-])C[C@@H](NC(=O)[C@H](N)CC(C)C)C(=O)N[C@@H](Cc1ccccc1)C(=O)N[C@H]2[C@@H](O)C(=O)O.Cl |  |  |  |  | 16 |  | 64 | 16 | 16 |  | 16 |  |  | 
CCCCCCCCCCCC(=O)NC1C(Oc2c(Oc3ccc([N+](=O)[O-])cc3)cc3cc2Oc2ccc(cc2[N+](=O)[O-])C[C@@H](NC(=O)[C@H](N)CC(C)C)C(=O)N[C@@H](Cc2ccccc2)C(=O)N[C@H]3[C@H](O)C(=O)O)OC(CO)C(O)C1O.O=C(O)C(F)(F)F (stereo partly specified) |  | 64 | 32 |  | 8 |  | 32 | 32 | 8 |  | 32 |  |  | 
CCCCCCCCCCCC(=O)NC1C(Oc2cc3cc(c2OC)Oc2ccc(cc2[N+](=O)[O-])C[C@@H](NC(=O)[C@H](N)CC(C)C)C(=O)N[C@@H](Cc2ccccc2)C(=O)N[C@H]3[C@@H](O)C(=O)NCCCC(=O)N[C@@H](C(=O)NCCCN(C)C)c2ccccc2)OC(CO)C(O)C1O.O=C(O)C(F)(F)F (stereo partly specified) | 16 | 16 | 8 | 32 | 16 | 32 | 32 | 8 | 8 |  | 32 | 16 | 32 | 
CCCCCCCCCCCC(=O)NC1C(Oc2cc3cc(c2OC)Oc2ccc(cc2[N+](=O)[O-])C[C@@H](NC(=O)[C@H](N)CC(C)C)C(=O)N[C@@H](Cc2ccccc2)C(=O)N[C@H]3[C@H](O)C(=O)O)OC(CO)C(O)C1O.Cl (stereo partly specified) |  |  |  |  |  |  |  | 32 |  |  |  |  |  | 
